According to patent publication US20190275027A1 (priority 2018, published 2019):
Several values for one entry are separate records, joined by “and”; a condition that tells them apart may be missing. Identical values can stand only once. Like-named read-outs stand apart in the source and are kept apart here.

Legend:
[1] = tested on: wild type Ebola virus, Mayinga strain; experiment: microbe, parasite or virus in culture; assay type: cell-based; conditions: for IC50: Zaire ebolavirus, Huh-7, 24 h, read-out: EBOV IC50
MARV = experiment: organism not typed; assay type: cell-based, Marburg virus; conditions: read-out: MARV IC50
EBOV virus = tested on: EBOV virus; parameters: species or system BALB/c mice; conditions: mouse, in vivo
physchem = conditions: pH 7.4, aqueous buffer, kinetic from dmso stock
EBOV = tested on: EBOV; parameters: species or system murine; conditions: mouse, in vivo

Work on `COc1cc(C[C@@H]2c3cc4c(cc3CCN2C)OCO4)ccc1Oc1ccc(C[C@@H]2c3cc4c(cc3CCN2C)OCO4)cc1OC` [Compound 45] yielded an IC50 [1] of 372 ± 34 nM and an IC50 (MARV) of 339 ± 56 nM.
For `COc1cc2c(cc1OC)[C@@H](Cc1ccc(Oc3ccc(C[C@@H]4c5cc(OC)c(OC)cc5CCN4C)cc3OC)nc1)N(C)CC2` [Compound 4], the IC50 [1] was 446 ± 57 nM, the “% Survival” value (EBOV virus) was 71% and the “Efficacy against Ebola virus challenge (in words)” value (EBOV virus) was “good efficacy”. The Survival (EBOV virus) was 5/7, the solubility (physchem) was > 100 µM and the IC50 (MARV) was 566 ± 108 nM.
`COc1ccc2c(c1)CCN(C)[C@@H]2Cc1cccc(Oc2ccc(C[C@@H]3c4cc(OC)c(OC)cc4CCN3C)cc2)c1` [Compound B4-21] gave an IC50 [1] of 424 ± 82 nM and an IC50 (MARV) of 467 ± 93 nM.
Work on `COc1cc2c(cc1OC)[C@@H](Cc1cccc(Oc3cc(C[C@@H]4c5cc(OC)c(OC)cc5CCN4C)ccc3OC)c1)N(C)CC2` [Compound 51] yielded an IC50 [1] of 1090 ± 72 nM and an IC50 (MARV) of 1180 ± 179 nM.
Work on `COc1cc2c(cc1OC)[C@@H](Cc1ccc(Oc3cccc(C[C@@H]4c5cc(OC)c(OC)cc5CCN4C)c3)nc1)N(C)CC2` [Compound 48] yielded an IC50 [1] of 875 ± 110 nM and an IC50 (MARV) of 1490 ± 320 nM.
With `COc1ccc2c(c1)CCN(C)[C@@H]2Cc1ccc(Oc2ccc(C[C@@H]3c4cc(OC)c(OC)cc4CCN3C)cc2)cc1` [Compound B4-24] the IC50 [1] was 125 ± 26 nM and the IC50 (MARV) was 130 ± 49 nM.
`COc1cc2c(cc1OC)[C@@H](Cc1cccc(Oc3cccc(C[C@@H]4c5cc6c(cc5CCN4C)OCO6)c3)c1)N(C)CC2` [B3-36^R,R] showed an IC50 [1] of 413 ± 51 nM and an IC50 (MARV) of 495 ± 66 nM.
For `COc1cc2c(cc1OC)[C@@H](Cc1ccc(Oc3cc(C[C@@H]4c5cc(OC)c(OC)cc5CCN4C)ccc3OC)c(OC)c1)N(C)CC2` [Compound 2], the IC50 [1] was 1050 ± 90 nM, the “% Survival” value (EBOV virus) was 100% and the “Efficacy against Ebola virus challenge (in words)” value (EBOV virus) was “statistically significant improvement when compared to TETN and saline”. For the same molecule, the Survival (EBOV virus) was 7/7, the solubility (physchem) was > 100 µM and the “% Survival” value (EBOV) was 57% and 43%. For the same molecule, the “Efficacy (in words)” value (EBOV) was “good efficacy”, the Survival (EBOV) was 4/7 and 3/7 and the “Efficacy (in words)” value (EBOV; 5 mg/kg) was “moderate efficacy”. For the same molecule, the IC50 (MARV) was 1240 ± 269 nM.
For `COc1ccc2cc1Oc1ccc(cc1)C[C@H]1c3cc(c(OC)cc3CCN1C)Oc1c(OC)c(OC)cc3c1[C@H](C2)N(C)CC3` [TETN, tetrandrine, reference compound], the IC50 [1] was 292 ± 31 nM, the “% Survival” value (EBOV virus) was 57% and the Survival (EBOV virus) was 4/7. For the same molecule, the solubility (physchem) was > 100 µM and the IC50 (MARV) was 370 ± 95 nM.
In the case of `COc1ccc2c(c1)CCN(C)[C@@H]2Cc1ccc(Oc2ccc(C[C@@H]3c4cc5c(cc4CCN3C)OCO5)cc2)cc1` [Compound B4-34], the IC50 [1] is reported as 65 ± 16 nM and the IC50 (MARV) is reported as 148 ± 48 nM.
Work on `COc1cc2c(cc1OC)[C@@H](Cc1cccc(Oc3ccc(C[C@@H]4c5cc6c(cc5CCN4C)OCO6)cc3)c1)N(C)CC2` [Compound B4-36] yielded an IC50 [1] of 415 ± 43 nM and an IC50 (MARV) of 487 ± 88 nM.
In the case of `COc1ccc2c(c1)CCN(C)[C@@H]2Cc1cccc(Oc2ccc(C[C@@H]3c4cc5c(cc4CCN3C)OCO5)cc2)c1` [Compound B4-31], the IC50 [1] is reported as 775 ± 156 nM and the IC50 (MARV) is reported as 1180 ± 105 nM.
For `COc1ccc2c(c1)CCN(Cc1ccccc1)[C@@H]2Cc1ccc(Oc2ccc(C[C@@H]3c4ccc(OC)cc4CCN3Cc3ccccc3)cc2)cc1` [Compound 42], the IC50 [1] was > 1000 nM and the IC50 (MARV) was > 1000 nM.
For `COc1ccc2c(c1)CCN(C)[C@@H]2Cc1ccc(OC)c(Oc2cc(C[C@@H]3c4ccc(OC)cc4CCN3C)ccc2OC)c1` [Compound B3-42], the IC50 [1] was 617 ± 45 nM and the IC50 (MARV) was 418 ± 47 nM.
`COc1ccc2c(c1)CCN(C(C)C)[C@@H]2Cc1ccc(Oc2ccc(C[C@@H]3c4ccc(OC)cc4CCN3C(C)C)cc2)cc1` [Compound 41] showed an IC50 [1] of 249 ± 19 nM and an IC50 (MARV) of 188 ± 40 nM.
For `COc1cc2c(cc1OC)[C@@H](Cc1ccc(Oc3ccc(C[C@@H]4c5cc(OC)c(OC)cc5CCN4C)cc3OC)c(OC)c1)N(C)CC2` [Compound 1], the IC50 [1] was 730 ± 60 nM, the “% Survival” value (EBOV virus) was 100% and the “Efficacy against Ebola virus challenge (in words)” value (EBOV virus) was “statistically significant improvement when compared to TETN and saline”. The Survival (EBOV virus) was 7/7, the solubility (physchem) was > 100 µM and the “Efficacy (in words)” value (EBOV) was “good efficacy”. The Survival (EBOV) was 4/7 and 0/7 and the IC50 (MARV) was 506 ± 87 nM.
In the case of `COc1ccc2c(c1)CCN(C)[C@@H]2Cc1ccc(Oc2ccc(C[C@@H]3c4ccc(OC)cc4CCN3C)cc2OC)cc1` [Compound B4-17], the IC50 [1] is reported as 134 ± 16 nM and the IC50 (MARV) is reported as 133 ± 26 nM.
For `COc1ccc2c(c1)CCN(C)[C@@H]2Cc1ccc(Oc2ccc(C[C@@H]3c4ccc(OC)cc4CCN3C)cc2)cc1` [B4-14^RR], the “EBOV activity (in words)” value [1] was “good activity”.
With `COc1cc2c(cc1OC)[C@@H](Cc1ccc(OC)c(Oc3cc(C[C@@H]4c5cc(OC)c(OC)cc5CCN4C)ccc3OC)c1)N(C)CC2` [Compound 3] the IC50 [1] was 1220 ± 119 nM, the “% Survival” value (EBOV virus) was 71% and the “Efficacy against Ebola virus challenge (in words)” value (EBOV virus) was “good efficacy”. The Survival (EBOV virus) was 5/7, the solubility (physchem) was > 100 µM and the IC50 (MARV) was 1100 ± 222 nM.
In the case of `COc1ccc2c(c1)CCN(C)[C@@H]2Cc1ccc(Oc2ccc(C[C@@H]3c4cc(OC)c(OC)cc4CCN3C)cn2)c(OC)c1` [Compound 5], the IC50 [1] is reported as 505 ± 32 nM, the solubility (physchem) is reported as > 100 µM and the IC50 (MARV) is reported as 414 ± 70 nM.
With `COc1ccc(C[C@@H]2c3cc4c(cc3CCN2C)OCO4)cc1Oc1cc(C[C@@H]2c3cc4c(cc3CCN2C)OCO4)ccc1OC` [Compound 52] the IC50 [1] was 615 ± 40 nM and the IC50 (MARV) was 585 ± 154 nM.
`CN1CCc2cc3c(cc2[C@H]1Cc1cccc(Oc2cccc(C[C@@H]4c5cc6c(cc5CCN4C)OCO6)c2)c1)OCO3` [Compound B3-35] gave an IC50 [1] of 789 ± 97 nM and an IC50 (MARV) of 537 ± 60 nM.
With `COc1ccc2c(c1)CCN(C)[C@@H]2Cc1cccc(Oc2cc(C[C@@H]3c4ccc(OC)cc4CCN3C)ccc2OC)c1` [Compound B3-12] the IC50 [1] was 1110 ± 179 nM and the IC50 (MARV) was 839 ± 158 nM.
With `COc1cc2c(cc1OC)[C@@H](Cc1ccc(Oc3cccc(C[C@@H]4c5cc(OC)c(OC)cc5CCN4C)c3)cc1)N(C)CC2` [Compound B4-26] the IC50 [1] was 530 ± 81 nM and the IC50 (MARV) was 770 ± 89 nM.
